Read-outs that look alike come from different tables or passages of the source.
How the values were obtained:
blackgrass = experiment: Test C pre-/postemergence herbicide test; format: in vivo, Alopecurus myosuroides
Method in brief: (§1)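 Pre-emergence: seeds sown in loam/sand blend and treated with compound in surfactant-containing solvent. Post-emergence: plants at 2–18 cm (1- to 4-leaf stage) in peat-based medium sprayed with the same formulation. Visual rating versus controls after 13–15 days in greenhouse, scale 0 (no effect) to 100 (complete control).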

nutsedge, yellow = experiment: Test C pre-/postemergence herbicide test; format: in vivo, Cyperus esculentus
Method in brief: as §1

velvetleaf = experiment: Test C pre-/postemergence herbicide test; format: in vivo, Abutilon theophrasti
Method in brief: as §1

pigweed = experiment: Test A pre-/postemergence herbicide test; format: in vivo, Amaranthus retroflexus; settings: for pest or weed control at 1000 g/ha: Amaranthus retroflexus, 240 h, 1000 g ai/ha, read-out: Plant response rating, Pigweed
Method in brief: (§2)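 Seeds in loam–sand blend received preemergence directed soil spray; separately, plants 2–10 cm at one- to two-leaf stage received postemergence spray, both with test chemicals in non-phytotoxic solvent with surfactant. After ~10 days in greenhouse, injury rated visually against untreated controls, 0 (no effect) to 100 (complete control).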

corn = experiment: Test C pre-/postemergence herbicide test; format: in vivo, Zea mays
Method in brief: as §1

galium = experiment: Test C pre-/postemergence herbicide test; format: in vivo, Galium aparine
Source text: Seeds of plant species selected from blackgrass (Alopecurus myosuroides), ryegrass, Italian (Italian ryegrass, Lolium multiflorum), wheat (winter wheat, Triticum aestivum), galium (catchweed bedstraw, Galium aparine), corn (Zea mays), crabgrass, large (large crabgrass, Digitaria sanguinalis), foxtail, giant (giant foxtail, Setaria faberii), johnsongrass (Sorghum halepense), lambsquarters (Chenopodium album), morningglory (Ipomoea coccinea), nutsedge, yellow (yellow nutsedge, Cyperus esculentus), pigweed (Amaranthus retroflexus), ragweed (common ragweed, Ambrosia elatior), soybean (Glycine max), barnyardgrass (Echinochloa crus-galli), oilseed rape (Brassica napus), waterhemp (common waterhemp, Amaranthus rudis), kochia (Kochia scoparia), oat, wild (wild oat, Avena fatua), surinam grass (Brachiaria decumbens), foxtail, green (green foxtail, Setaria viridis), goosegrass (Eleusine indica), bromegrass, downy (downy bromegrass, Bromus tectorum), nightshade (eastern black nightshade, Solanum ptycanthum), cocklebur (common cocklebur, Xanthium strumarium), cupgrass, woolly (woolly cupgrass, Eriochloa villosa), bermudagrass (Cynodon dactylon), sunflower, (common oilseed sunflower, Helianthus annuus), Russian thistle (Salsola kali) and velvetleaf (Abutilon theophrasti) were planted into a blend of loam soil and sand and treated preemergence with test chemicals formulated in a non-phytotoxic solvent mixture which included a surfactant. At the same time, plants selected from these crop and weed species and also barley (winter barley, Hordeum vulgare), […]), chickweed (common chickweed, Stellaria media), deadnettle (henbit deadnettle, Lamium amplexicaule), and canarygrass (littleseed canarygrass, Phalaris minor) were planted in pots containing Redi-Earth® planting medium (Scotts Company, 14111 Scottslawn Road, Marysville, Ohio 43041) comprising spaghnum peat moss, vermiculite, wetting agent and starter nutrients and treated with postemergence applications of test chemicals formulated in the same manner. Plants ranged in height from 2 to 18 cm (1- to 4-leaf stage) for postemergence treatments. Treated plants and controls were maintained in a greenhouse for 13 to 15 days, after which time all species were compared to controls and visually evaluated. Plant response ratings, summarized in Table C, are based on a scale of 0 to 100 where 0 is no effect and 100 is complete control. A dash (-) response means no test result.

ryegrass, Italian = experiment: Test C pre-/postemergence herbicide test; format: in vivo, Lolium multiflorum
Method in brief: as §1

morningglory = experiment: Test C pre-/postemergence herbicide test; format: in vivo, Ipomoea coccinea
Method in brief: as §1

wheat = experiment: Test A pre-/postemergence herbicide test; format: in vivo, Triticum aestivum; settings: for plant injury at 1000 g/ha: Triticum aestivum, 240 h, 1000 g ai/ha, read-out: Plant response rating, Wheat
Method in brief: as §2

[1] = Postemergence, 31 g ai/ha, scale 0 (no effect) to 100 (complete control)
[2] = Postemergence, 62 g ai/ha, scale 0 to 100 (0 no effect, 100 complete control)
[3] = Postemergence, 125 g ai/ha, scale 0 to 100 (0 no effect, 100 complete control)
[4] = Postemergence, 250 g ai/ha, scale 0 to 100 (0 no effect, 100 complete control)
[5] = Preemergence, 62 g ai/ha, scale 0 to 100
[6] = Preemergence, 125 g ai/ha, scale 0 to 100 (0 no effect, 100 complete control)
[7] = Preemergence, 31 g ai/ha, scale 0 to 100 (0 no effect, 100 complete control)
[8] = Preemergence, 250 g ai/ha, scale 0 to 100 (0 no effect, 100 complete control)
[9] = post-emergence, Postemergence, 0 to 100 scale (0 no effect, 100 complete control)
[10] = pre-emergence, Preemergence, visual rating on 0 to 100 scale (0 no effect, 100 complete control), approx. 10 days
[11] = Postemergence, 16 g ai/ha, scale 0 to 100 (0 no effect, 100 complete control)
[12] = Preemergence, 16 g ai/ha, scale 0 to 100
[13] = Postemergence, 125 g ai/ha, 0 to 100 scale, 0 no effect, 100 complete control
[14] = Postemergence, 500 g ai/ha, 0 to 100 scale (0 no effect, 100 complete control)
[15] = Preemergence, 125 g ai/ha, visual rating on 0 to 100 scale (0 no effect, 100 complete control)
[16] = preemergence, 500 g ai/ha, 0 to 100 scale

O=C1NCC(c2ccc(F)c(F)c2)C1C(=O)Nc1cccc(F)c1F (stereo not drawn) [Compound 17, N-(2,3-difluorophenyl)-4-(3,4-difluorophenyl)-2-oxo-3-pyrrolidinecarboxamide]
Plant response rating, Blackgrass (blackgrass; [1]): 0
Plant response rating, Blackgrass (blackgrass; [2]): 0
Plant response rating, Blackgrass (blackgrass; [3]): 0
Plant response rating, Blackgrass (blackgrass; [4]): 0
Plant response rating, Blackgrass (blackgrass; [5]): 50
Plant response rating, Blackgrass (blackgrass; [6]): 80
Blackgrass plant response rating (blackgrass; [7]): 5
Plant response rating, Blackgrass (blackgrass; [8]): 95
Plant response rating, Nutsedge, Yellow (nutsedge, yellow; [1]): 0
Plant response rating, Nutsedge, Yellow (nutsedge, yellow; [2]): 0
Plant response rating, Nutsedge, Yellow (nutsedge, yellow; [3]): 0
Plant response rating, Nutsedge, Yellow (nutsedge, yellow; [4]): 0
Plant response rating, Nutsedge, Yellow (nutsedge, yellow; [5]): 0
Plant response rating, Nutsedge, Yellow (nutsedge, yellow; [6]): 0
Plant response rating, Velvetleaf (velvetleaf; [1]): 0
Plant response rating, Velvetleaf (velvetleaf; [2]): 0
Plant response rating, Velvetleaf (velvetleaf; [3]): 0
Plant response rating, Velvetleaf (velvetleaf; [4]): 0
Plant response rating, Velvetleaf (velvetleaf; [5]): 0
Plant response rating, Velvetleaf (velvetleaf; [6]): 0
pest or weed control at 1000 g/ha (pigweed; [9]): 40%
pest or weed control at 1000 g/ha (pigweed; [10]): 50%
Plant response rating, Corn (corn; [1]): 0
Plant response rating, Corn (corn; [2]): 0
Plant response rating, Corn (corn; [3]): 0
Plant response rating, Corn (corn; [4]): 0
Plant response rating, Corn (corn; [5]): 0
Plant response rating, Corn (corn; [6]): 30
Corn plant response rating (corn; [7]): 0
Plant response rating, Corn (corn; [8]): 70
Plant response rating, Galium (galium; [1]): 0
Plant response rating, Galium (galium; [2]): 0
Plant response rating, Galium (galium; [3]): 0
Plant response rating, Galium (galium; [4]): 0
Plant response rating, Galium (galium; [5]): 70
Plant response rating, Galium (galium; [6]): 70
Galium plant response rating (galium; [7]): 0
Plant response rating, Galium (galium; [8]): 90
Plant response rating, Ryegrass, Italian (ryegrass, Italian; [1]): 0
Plant response rating, Ryegrass, Italian (ryegrass, Italian; [2]): 0
Plant response rating, Ryegrass, Italian (ryegrass, Italian; [3]): 0
Plant response rating, Ryegrass, Italian (ryegrass, Italian; [4]): 5
Plant response rating, Ryegrass, Italian (ryegrass, Italian; [5]): 5
Plant response rating, Ryegrass, Italian (ryegrass, Italian; [6]): 35
Plant response rating, Morningglory (morningglory; [1]): 0
Plant response rating, Morningglory (morningglory; [2]): 0
Plant response rating, Morningglory (morningglory; [3]): 0
Plant response rating, Morningglory (morningglory; [4]): 0
Plant response rating, Morningglory (morningglory; [5]): 0
plant injury at 1000 g/ha (wheat; [9]): 60%
plant injury at 1000 g/ha (wheat; [10]): 70%

O=C1NCC(c2cc(F)c(F)c(F)c2)C1C(=O)Nc1cccc(F)c1F (stereo not drawn) [Compound 48]
Plant response rating, Blackgrass (blackgrass; [11]): 0
Plant response rating, Blackgrass (blackgrass; [1]): 0
Plant response rating, Blackgrass (blackgrass; [2]): 0
Plant response rating, Blackgrass (blackgrass; [3]): 0
Plant response rating, Blackgrass (blackgrass; [5]): 20
Plant response rating, Blackgrass (blackgrass; [6]): 50
Plant response rating, Blackgrass (blackgrass; [12]): 0
Blackgrass plant response rating (blackgrass; [7]): 0
Plant response rating, Nutsedge, Yellow (nutsedge, yellow; [11]): 0
Plant response rating, Nutsedge, Yellow (nutsedge, yellow; [1]): 0
Plant response rating, Nutsedge, Yellow (nutsedge, yellow; [2]): 0
Plant response rating, Nutsedge, Yellow (nutsedge, yellow; [3]): 0
Plant response rating, Nutsedge, Yellow (nutsedge, yellow; [5]): 0
Plant response rating, Nutsedge, Yellow (nutsedge, yellow; [6]): 20
Plant response rating, Nutsedge, Yellow (nutsedge, yellow; [12]): 0
Plant response rating, Velvetleaf (velvetleaf; [11]): 0
Plant response rating, Velvetleaf (velvetleaf; [1]): 0
Plant response rating, Velvetleaf (velvetleaf; [2]): 15
Plant response rating, Velvetleaf (velvetleaf; [3]): 35
Plant response rating, Velvetleaf (velvetleaf; [5]): 0
Plant response rating, Velvetleaf (velvetleaf; [6]): 0
Plant response rating, Velvetleaf (velvetleaf; [12]): 0
Plant response rating, Pigweed (pigweed; [13]): 0
Plant response rating, Pigweed (pigweed; [14]): 0
Pigweed plant response rating (pigweed; [15]): 0
Plant response rating, Pigweed (pigweed; [16]): 0
Plant response rating, Corn (corn; [11]): 0
Plant response rating, Corn (corn; [1]): 5
Plant response rating, Corn (corn; [2]): 5
Plant response rating, Corn (corn; [3]): 5
Plant response rating, Corn (corn; [5]): 20
Plant response rating, Corn (corn; [6]): 20
Plant response rating, Corn (corn; [12]): 0
Corn plant response rating (corn; [7]): 0
Plant response rating, Galium (galium; [5]): 30
Plant response rating, Galium (galium; [6]): 60
Plant response rating, Galium (galium; [12]): 0
Galium plant response rating (galium; [7]): 0
Plant response rating, Ryegrass, Italian (ryegrass, Italian; [11]): 0
Plant response rating, Ryegrass, Italian (ryegrass, Italian; [1]): 0
Plant response rating, Ryegrass, Italian (ryegrass, Italian; [2]): 0
Plant response rating, Ryegrass, Italian (ryegrass, Italian; [3]): 0
Plant response rating, Ryegrass, Italian (ryegrass, Italian; [5]): 0
Plant response rating, Ryegrass, Italian (ryegrass, Italian; [6]): 0
Plant response rating, Ryegrass, Italian (ryegrass, Italian; [12]): 0
Plant response rating, Morningglory (morningglory; [11]): 10
Plant response rating, Morningglory (morningglory; [1]): 10
Plant response rating, Morningglory (morningglory; [2]): 10
Plant response rating, Morningglory (morningglory; [3]): 10
Plant response rating, Morningglory (morningglory; [5]): 0
Plant response rating, Morningglory (morningglory; [6]): 15
Plant response rating, Morningglory (morningglory; [12]): 0
Plant response rating, Wheat (wheat; [13]): 20
Plant response rating, Wheat (wheat; [14]): 40
Wheat plant response rating (wheat; [15]): 0
Plant response rating, Wheat (wheat; [16]): 50

O=C1NCC(c2ccc(Cl)c(F)c2)C1C(=O)Nc1cccc(F)c1F (stereo not drawn) [Compound 52]
Plant response rating, Blackgrass (blackgrass; [1]): 0
Plant response rating, Blackgrass (blackgrass; [2]): 0
Plant response rating, Blackgrass (blackgrass; [3]): 0
Plant response rating, Blackgrass (blackgrass; [4]): 0
Plant response rating, Blackgrass (blackgrass; [5]): 0
Plant response rating, Blackgrass (blackgrass; [6]): 0
Blackgrass plant response rating (blackgrass; [7]): 0
Plant response rating, Blackgrass (blackgrass; [8]): 0
Plant response rating, Nutsedge, Yellow (nutsedge, yellow; [1]): 10
Plant response rating, Nutsedge, Yellow (nutsedge, yellow; [2]): 10
Plant response rating, Nutsedge, Yellow (nutsedge, yellow; [3]): 10
Plant response rating, Nutsedge, Yellow (nutsedge, yellow; [4]): 10
Plant response rating, Nutsedge, Yellow (nutsedge, yellow; [5]): 25
Plant response rating, Nutsedge, Yellow (nutsedge, yellow; [6]): 25
Plant response rating, Velvetleaf (velvetleaf; [1]): 10
Plant response rating, Velvetleaf (velvetleaf; [2]): 20
Plant response rating, Velvetleaf (velvetleaf; [3]): 20
Plant response rating, Velvetleaf (velvetleaf; [4]): 35
Plant response rating, Velvetleaf (velvetleaf; [5]): 5
Plant response rating, Velvetleaf (velvetleaf; [6]): 5
Plant response rating, Pigweed (pigweed; [13]): 0
Plant response rating, Pigweed (pigweed; [14]): 40
Pigweed plant response rating (pigweed; [15]): 0
Plant response rating, Pigweed (pigweed; [16]): 40
Plant response rating, Corn (corn; [1]): 0
Plant response rating, Corn (corn; [2]): 0
Plant response rating, Corn (corn; [3]): 5
Plant response rating, Corn (corn; [4]): 5
Plant response rating, Corn (corn; [5]): 10
Plant response rating, Corn (corn; [6]): 10
Corn plant response rating (corn; [7]): 10
Plant response rating, Corn (corn; [8]): 10
Plant response rating, Galium (galium; [5]): 0
Plant response rating, Galium (galium; [6]): 90
Galium plant response rating (galium; [7]): 0
Plant response rating, Galium (galium; [8]): 90
Plant response rating, Ryegrass, Italian (ryegrass, Italian; [1]): 0
Plant response rating, Ryegrass, Italian (ryegrass, Italian; [2]): 0
Plant response rating, Ryegrass, Italian (ryegrass, Italian; [3]): 0
Plant response rating, Ryegrass, Italian (ryegrass, Italian; [4]): 0
Plant response rating, Ryegrass, Italian (ryegrass, Italian; [5]): 0
Plant response rating, Ryegrass, Italian (ryegrass, Italian; [6]): 0
Plant response rating, Morningglory (morningglory; [1]): 5
Plant response rating, Morningglory (morningglory; [2]): 10
Plant response rating, Morningglory (morningglory; [3]): 10
Plant response rating, Morningglory (morningglory; [4]): 30
Plant response rating, Morningglory (morningglory; [5]): 0
Plant response rating, Morningglory (morningglory; [6]): 0
Plant response rating, Wheat (wheat; [13]): 0
Plant response rating, Wheat (wheat; [14]): 30
Wheat plant response rating (wheat; [15]): 0
Plant response rating, Wheat (wheat; [16]): 0
